The text below walks through data of patent US11773127B2, “Compounds and methods for treating bacterial infections” (Washington University, priority 2017, dated 2023).

The inhibition is the change of the read-out against control, counted positive when it falls. By IC50 is commonly meant the point on the concentration scale where inhibition reaches its midpoint. A high value points to weaker potency.

Where two headings read alike, the source gives them in different places.

The assay has as its target T1, FmlHLD (Escherichia coli, UniProt P77588).
T1 construct: 6xHis (C); made in house; host or cells: E. coli C600, periplasm, pTRC99a
Kind of assay: biochemical. The assay is classed as binding, E. coli. The settings on record: for PI100 (percent inhibition): galactoside at 100 μM, 100 µM; for inhibitory potency against FmlH, in words: ELISA-based competition assay. The essentials: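 Sialidase-treated bovine submaxillary mucin (ds-BSM) coated wells, BSA-blocked, then biotinylated FmlH^LD (20 μg/mL) with or without compound for 1 h at room temperature. Bound lectin detected by streptavidin-HRP/TMB, A450.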
A general note: ELISA stands for enzyme-linked immunosorbent assay.

The mark [1] stands for this setting: read-out: % Inhibition at [μM] [1], compound at 1 μM, inhibition of FmlHLD binding to ds-BSM.
The mark [2] stands for this setting: read-out: % Inhibition at [μM] [10], compound at 10 μM, inhibition of FmlHLD binding to ds-BSM.
Setting [3] is: read-out: % Inhibition at [μM] [100], compound at 100 μM, inhibition of FmlHLD binding to ds-BSM.
Setting [4] is: mean with standard error of the mean.
Setting [5] is: read-out: PI1 (percent inhibition), galactoside at 1 μM, mean with standard error of the mean.
Setting [6] is: read-out: PI10 (percent inhibition), galactoside at 10 μM, mean with standard error of the mean.
The mark [7] stands for this setting: read-out: PI100 (percent inhibition), galactoside at 100 μM, mean with standard error of the mean.
Where [8] appears, read: IC50, inhibition of FmlHLD binding to ds-BSM.
Setting [9] is: IC50 (μM), Table 5, Gal and GalNAc inhibition of FmlH.
Where [10] appears, read: read-out: % Inhibition at [μM] [0.1], compound at 0.1 μM (100 nM), inhibition of FmlHLD binding to ds-BSM.
Where [11] appears, read: read-out: PI (0.1) (average percent inhibition), compound at 100 nM, Table 4.
The mark [12] stands for this setting: read-out: PI(1) (average percent inhibition), compound at 1 μM, Table 4.
[13] abbreviates: IC50 (μM), Table 6, sulfonamides 3078-3090.

T1 sequence (P77588 25-182): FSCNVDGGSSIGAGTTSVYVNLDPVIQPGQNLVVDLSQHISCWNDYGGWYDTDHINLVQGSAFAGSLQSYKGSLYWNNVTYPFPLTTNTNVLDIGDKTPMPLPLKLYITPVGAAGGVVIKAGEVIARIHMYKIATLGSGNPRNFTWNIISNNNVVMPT

For the compound `N#Cc1ccccc1O[C@@H]1O[C@H](CO)[C@H](O)[C@H](O)[C@H]1O` [Compound 137b], the inhibition at 1 µM under setting [1] is 12.1%. Further, under setting [2], the inhibition at 10 µM was determined as 30.4%. For the same compound, the inhibition at 100 µM under setting [3] worked out at 94.5%.

As to `O=[N+]([O-])c1ccc(O[C@@H]2O[C@H](CO)[C@H](O)[C@H](O)[C@H]2O)cc1` [p-Nitrophenyl Gal, reference compound], under setting [2], the inhibition at 10 µM was found to be 13.7%. Also, the inhibition at 100 µM under setting [3] is 78.1%.

For `OC[C@H]1O[C@@H](Oc2ccccc2Cl)[C@H](O)[C@@H](O)[C@H]1O` [Compound 6β, 2-chlorophenyl β-D-galactopyranoside], the “PI100 (percent inhibition)” value under setting [4] is 90.5 ± 0.6%. Moreover, the inhibition at 1 µM under setting [5] is 8 ± 4%. The inhibition at 10 µM under setting [6] amounted to 20.7 ± 5.5%. Further, the inhibition at 100 µM under setting [7] is 90%.

The compound `CC(=O)N[C@H]1[C@H](Oc2cccc(F)c2-c2cccc(NS(C)(=O)=O)c2)O[C@H](CO)[C@H](O)[C@@H]1O` [AM2109] returned a half-inhibitory concentration (IC50) under setting [8] of 0.151 µM. That is a sub-micromolar value.

Take `COc1ccc(O)cc1-c1ccccc1O[C@@H]1O[C@H](CO)[C@H](O)[C@H](O)[C@H]1NC(C)=O` [AM2073, N-((2S,3R,4R,5R,6R)-4,5-dihydroxy-2-((5′-hydroxy-2′-methoxy-[1,1′-biphenyl]-2-yl)oxy)-6-(hydroxymethyl)tetrahydro-2H-pyran-3-yl)acetamide]: the “inhibitory potency against FmlH, in words” value (“inhibitory potency” for short) is on record as “equal or slightly reduced potency”. The compound further displayed an IC50 under setting [9] of 0.51 µM. Besides, the inhibition at 0.1 µM under setting [10] came out at 7.1%. Moreover, under setting [1], the inhibition at 1 µM turned out to be 34.2%. Besides, the inhibition at 0.1 µM under setting [11] was determined as 7.1%. Further, the inhibition at 1 µM under setting [12] was 34.2%.

`OC[C@H]1O[C@@H](Oc2ccccc2-c2ccccc2)[C@H](O)[C@@H](O)[C@H]1O` [Compound 113f2]: under setting [1], the inhibition at 1 µM is 8.1%. Further, under setting [2], the inhibition at 10 µM is 31%. Besides, under setting [3], the inhibition at 100 µM is 91.1%.

Take `OC[C@H]1O[C@@H](Oc2cccc(-c3ccccc3)c2)[C@H](O)[C@@H](O)[C@H]1O` [Compound 31β, [1,1′-biphenyl]-3-yl α/β-D-galactopyranoside]: under setting [4], the “PI100 (percent inhibition)” value is 56.9 ± 6.2%. Under setting [6], the inhibition at 10 µM turned out to be 7.8 ± 5.5%. For the same compound, the inhibition at 100 µM under setting [7] stood at 57%.

For the compound `OC[C@H]1O[C@H](Oc2cccc(-c3ccccc3)c2)[C@H](O)[C@@H](O)[C@H]1O` [Compound 31α, [1,1′-biphenyl]-3-yl α/β-D-galactopyranoside], under setting [7], the inhibition at 100 µM turned out to be 45.6 ± 2.5%.

Regarding `OC[C@H]1O[C@@H](Oc2ccc(-c3ccccc3)cc2)[C@H](O)[C@@H](O)[C@H]1O` [Compound 32β, [1,1′-biphenyl]-4-yl α/β-D-galactopyranoside], the inhibition at 100 µM under setting [7] worked out at 30%.

`CS(=O)(=O)Nc1cccc(-c2ccccc2O[C@@H]2O[C@H](CO)[C@H](O)[C@H](O)[C@H]2O)c1` [AM2043, N-(2′-(((2S,3R,4S,5R,6R)-3,4,5-trihydroxy-6-(hydroxymethyl)tetrahydro-2H-pyran-2-yl)oxy)-[1,1′-biphenyl]-3-yl)methanesulfonamide]: the “inhibitory potency” value is “loss in activity relative to 29β-NAc”. Further, the IC50 under setting [9] amounted to 1.11 µM. Further, under setting [8], the IC50 is 1.11 µM. For the same compound, under setting [10], the inhibition at 0.1 µM amounted to 1.6%. Also, the inhibition at 1 µM under setting [1] was determined as 49.8%. Under setting [11], the inhibition at 0.1 µM came out at 1.6%. Further, the inhibition at 1 µM under setting [12] came to 49.8%.

For the compound `O=c1ccc2nc3ccc(O[C@@H]4O[C@H](CO)[C@H](O)[C@H](O)[C@H]4O)cc3oc-2c1` [Compound 15β, Resorufin galactoside], the “PI100 (percent inhibition)” value under setting [4] was 80.4 ± 6.6%. Under setting [6], the inhibition at 10 µM came to 24 ± 3.2%. Besides, the inhibition at 100 µM under setting [7] turned out to be 80%.

Regarding `Nc1ccc(O[C@@H]2O[C@H](CO)[C@H](O)[C@H](O)[C@H]2O)cc1` [4-amino-phenyl Gal, reference compound], under setting [2], the inhibition at 10 µM came out at 9.8%. The inhibition at 100 µM under setting [3] turned out to be 65.1%.

In the case of `O=C(O)c1cc(-c2ccccc2O[C@@H]2O[C@H](CO)[C@H](O)[C@H](O)[C@H]2O)cc([N+](=O)[O-])c1` [AM2050, 5-nitro-2′-(((2S,3R,4S,5R,6R)-3,4,5-trihydroxy-6-(hydroxymethyl)tetrahydro-2H-pyran-2-yl)oxy)-[1,1′-biphenyl]-3-car oxylic acid], the “potency relative to matched pair Gal/GalNAc derivative” value (2038 vs 2043, 2050 vs 3029) is 6 fold. Moreover, the IC50 by setting is: under setting [9], 0.28 µM; under setting [8], 0.418 µM. The inhibition at 0.1 µM under setting [10] stood at 7.6% and the inhibition at 0.1 µM under setting [11] worked out at 7.6%. Besides, the inhibition at 1 µM by setting is: under setting [1], 68%; under setting [12], 68%.

Turning to `OC[C@H]1O[C@@H](SCCc2ccccc2)[C@H](O)[C@@H](O)[C@H]1O` [2-phenylethyl-thio-galactoside, reference compound], under setting [2], the inhibition at 10 µM stood at 2.31%. Further, the inhibition at 100 µM under setting [3] was determined as 49.9%.

With `N#Cc1ccccc1O[C@H]1O[C@H](CO)[C@H](O)[C@H](O)[C@H]1O` [Compound 137a], the inhibition at 100 µM under setting [3] came out at 17.8%.

As to `COC(=O)c1cccc(-c2ccccc2O[C@@H]2O[C@H](CO)[C@H](O)[C@H](O)[C@H]2O)c1` [Compound 30β, 2′-(α/β-D-galactopyranosyloxy)-[1,1′-Biphenyl]-3-carboxylic acid methyl ester], under setting [4], the “PI100 (percent inhibition)” value came out at 86.6 ± 0.8%. Under setting [5], the inhibition at 1 µM is 3.7 ± 3.5%. Further, the inhibition at 10 µM under setting [6] was 22.4 ± 2.6%. In addition, under setting [7], the inhibition at 100 µM was found to be 87%.

Consider `O=C(O)c1cccc(-c2ccccc2O[C@H]2O[C@H](CO)[C@H](O)[C@H](O)[C@H]2O)c1` [Compound 200a], for which, under setting [3], the inhibition at 100 µM turned out to be 26.2%.

Regarding `Cc1cc(=O)oc2c(F)c(O[C@@H]3O[C@H](CO)[C@H](O)[C@H](O)[C@H]3O)c(F)cc12` [Compound 13β], the “PI100 (percent inhibition)” value under setting [4] is 49.7 ± 4.5%. Under setting [6], the inhibition at 10 µM was found to be 0.8 ± 3.1%. In addition, the inhibition at 100 µM under setting [7] was determined as 50%.

For the compound `OC[C@H]1O[C@@H](Oc2ccc(-c3ccccc3)cc2)[C@H](O)[C@@H](O)[C@H]1O` [Compound 114bf2], under setting [3], the inhibition at 100 µM turned out to be 30%.

The compound `CC(=O)N[C@H]1[C@H](Oc2ccc3ccccc3c2-c2cccc(NS(C)(=O)=O)c2)O[C@H](CO)[C@H](O)[C@@H]1O` [Compound 3085, N-((2S,3R,4R,5R,6R)-4,5-dihydroxy-6-(hydroxymethyl)-2-((1-(3-(methylsulfonamido)phenyl)naphthalen-2-yl)oxy)tetrahydro-2H-pyran-3-yl)acetamide] came in with an IC50 under setting [13] of 0.18 µM. This counts as sub-micromolar.

Under setting [13], `CC(=O)N[C@@H]1[C@H](Oc2cccc(C(=O)OCc3ccccc3)c2-c2cccc(NS(C)(=O)=O)c2)OC(CO)[C@H](O)[C@@H]1O` (stereo partly drawn) [Compound 3081, Benzyl 6-(((2S,3S,4R,5R)-3-acetamido-4,5-dihydroxy-6-(hydroxymethyl)tetrahydro-2H-pyran-2-yl)oxy)-3′-(methylsulfonamido)-[1,1′-biphenyl]-2-carboxylate] returned an IC50 of 0.18 µM.

In the case of `CC(=O)N[C@H]1[C@H](Oc2ccccc2-c2cccc(O)c2)O[C@H](CO)[C@H](O)[C@@H]1O` [AM2021, N-((2S,3R,4R,5R,6R)-4,5-dihydroxy-2-((3′-hydroxy-[1,1′-biphenyl]-2-yl)oxy)-6-(hydroxymethyl)tetrahydro-2H-pyran-3-yl)acetamide], the “inhibitory potency” value is given as “equal or slightly reduced potency”. Under setting [9], half-maximal inhibition (IC50) was put at 0.7 µM. For the same compound, the inhibition at 1 µM under setting [1] was 17.7%. Besides, under setting [12], the inhibition at 1 µM stood at 17.7%.

Regarding `CC(=O)N[C@H]1[C@H](Oc2ccccc2-c2cccc(F)c2)O[C@H](CO)[C@H](O)[C@@H]1O` [AM2028, N-((2S,3R,4R,5R,6R)-2-((3′-fluoro-[1,1′-biphenyl]-2-yl)oxy)-4,5-dihydroxy-6-(hydroxymethyl)tetrahydro-2H-pyran-3-yl)acetamide], the “inhibitory potency” value is listed as “equal or slightly reduced potency”. Further, inhibition under setting [9] was half-maximal at 1.48 µM (IC50). Moreover, under setting [1], the inhibition at 1 µM was found to be 11.8%. Also, under setting [12], the inhibition at 1 µM was 11.8%.

Turning to `COc1ccc(C(=O)O)cc1-c1ccccc1O[C@@H]1O[C@H](CO)[C@H](O)[C@H](O)[C@H]1NC(C)=O` [Compound 2051, 2′-(((2S,3R,4R,5R,6R)-3-acetamido-4,5-dihydroxy-6-(hydroxymethyl)tetrahydro-2H-pyran-2-yl)oxy)-6-methoxy-[1,1′-biphenyl]-3-carboxylic acid], the “inhibitory potency” value was “weakest activity”. The same compound had an IC50 under setting [9] of 3.87 µM. Moreover, the “drop in activity relative to 29β-NAc” value (IC50 ratio) is recorded as 6 fold. Besides, under setting [11], the inhibition at 0.1 µM came to 0%. Moreover, the inhibition at 1 µM under setting [12] amounted to 15.9%.

As to `CC(=O)N[C@H]1[C@H](Oc2ccc3ncccc3c2)O[C@H](CO)[C@H](O)[C@@H]1O` [AM1184, N-((2S,3R,4R,5R,6R)-4,5-dihydroxy-6-(hydroxymethyl)-2-(quinolin-6-yloxy)tetrahydro-2H-pyran-3-yl)acetamide], the inhibition at 1 µM reads like this: under setting [1], 7.56%; under setting [12], 7.56%.

Take `CC(=O)N[C@H]1[C@H](Oc2cccc(C#N)c2-c2cccc(NS(C)(=O)=O)c2)O[C@H](CO)[C@H](O)[C@@H]1O` [AM2107]: the IC50 under setting [8] came to 0.109 µM.

For `CC(=O)N[C@H]1[C@H](Oc2cccc3cccnc23)O[C@H](CO)[C@H](O)[C@@H]1O` [AM1176], the inhibition at 1 µM was found to be 21% under setting [1] and 21% under setting [12].
